Like-named read-outs stand apart in the source and are kept apart here.
Key:
[1] = test system: delayed type hypersensitivity (picryl chloride induced foot pad swelling); assay: Murine delayed type hypersensitivity (DTH) response, picryl chloride; type: in vivo, mouse (Balb/c); conditions: for inhibition of DTH response: FIG. 8 legend
Description: The activity of ergoline compounds was also evaluated in a murine delayed-type hypersensitivity (DTH) assay. The DTH assay was performed in substantial accordance with the method set forth in Example 1. Briefly, mice were sensitized by topical administration of picryl chloride on day 1 of the assay. On day 4 paw size was determined and recorded and the paw was then challenged with picryl chloride. The challenged paw was remeasured on day 5 to quantitate the DTH response via the increase in paw size.
(§1) Male Balb/c mice (Charles River) weighing 20 to 25 g were used in all DTH studies. When adrenalectomized studies were carried out, sham surgery and adrenalectomized mice were obtained from the vendor. Animals were maintained on a 12:12 hour light:dark cycle. Mice were allowed ad lib access for food (Purina lab chow) and water (normal saline for adrenalectomized animals).
(§2) A DTH response was assessed by measuring the degree of rear foot pad swelling induced by picryl chloride. On day 0, mice were sensitized with 100 μl of 5% picryl chloride (in ethanol), which was applied to a shaved abdomen. Negative control groups were shaved but not sensitized. On day 3, mice were anesthetized with methoxyflurane, and the baseline rear foot pad thickness was measured with a micrometer (Mitutoyo) in μ, and was recorded in duplicate. Fifty μl of picryl chloride was then applied to each pad with a pipet (Rainen) while the animal was unconscious. The negative controls also received picryl chloride at this point to control for primary irritancy. Twenty-four hours later, the mice were sacrificed by CO2 asphyxiation and each rear foot pad was again measured in duplicate, and any evidence of foot pad swelling was calculated. The mean rear foot swelling change of both pads for each animal from days 3 to 4 was used as the index of immune function in the DTH assay.
(§3) Unless otherwise stated all animals were given four subcutaneous doses of test compound just prior to picryl chloride sensitization on day 0, on day 1 and day 2, and just prior to picryl chloride challenge on day 3. In a few experiments, compounds were administered via oral or intraperitoneal routes. All drugs were delivered as suspensions in 1% carboxy-methylcellulose (also contained 0.8% NaCl, 1% polysorbate-80, 1.4% benzyl alcohol). Carboxymethyl-cellulose (1%) was used in control injections.

[2] = test system: carrageenan induced paw swelling; assay: Carrageenan edema model (acute paw inflammation); type: in vivo, rat (Lewis)
α adrenergic receptors = conditions: background; cited from earlier work
inflammatory models = conditions: cited from earlier work
D-2 dopamine = conditions: background; cited from earlier work
Parkinsonism = conditions: background; cited from earlier work
[3] = test system: lipoidal amine induced arthritis; assay: Lipoidal amine induced polyarthritis (hind paw volume and weight); type: in vivo, rat (Lewis); conditions: Rattus norvegicus
Description: Lipoidal amine induced polyarthritis is an animal arthritis model originally described by Chang, Y., et al. in Arthritis and Rheumatism 23:62-71 (1980). The lipoidal amine induced polyarthritis results from injection of N,N-dioctadecyl-N^1,N-bis(2-hydroxyethyl) propanediamine (7.5 mg/kg Lewis rat (220-225 g)), which is suspended in oil, intradermally at the base of the tail.

[4] = test system: 5-HT induced paw swelling; assay: Serotonin (5-HT) induced acute paw inflammation; type: in vivo, rat (Lewis); conditions: FIG. 2
Description: In one such model, the acute paw inflammation model, rats were treated with test compounds one hour prior to plantar injection of a 50 μl volume of a phlogistic. Animals were sacrificed and paw weights were determined at a prescribed time interval following the plantar injections. When 1% carrageenan was used as the phlogistic, the time interval between injection and sacrifice was 3 hours. When serotonin (5-hydroxytryptamine (5-HT)) was used, as the phlogistic agent the time interval was one hour. When substance P was used, the time interval was 30 minutes. The acute paw inflammation model is described in more detail in Example 3.
Male Lewis rats (Charles River or Harlan Sprague Dawley) weighing 180 to 250 g were used in all acute inflammatory studies. Animals were maintained on a 12:12 hour light:dark cycle and were allowed ad lib access for food (Purina lab chow) and water. Experimental groups consisted of 5 or 6 rats.
Acute paw swelling was induced by the intraplantar injection of phlogistic agents into the left hind paw, with the uninjected right hind paw serving as the comparative control. One hour after dosing with test compound, 50 μl of serotonin (Sigma; 0.005 to 0.2 mg/ml in normal saline) or substance P (Sigma; 0.01 or 0.05 mg/ml in 10% thiorphan in normal saline) or carrageenan (Marine Colloidal or Sigma Type IV; 1% in normal saline) were injected under the skin of the left hind paw, while the animal was restrained in a plastic cone. Negative controls were given 50 μl intradermal injections of normal saline (serotonin or carrageenan assays) or 10% thiorphan (substance P assays) into the left hind paw. One hour following injection of serotonin, or 30 minutes following injection of substance P, or 180 minutes following injection of carrageenan, the animals were sacrificed by CO2 asphyxiation. The right and left hind paws were cut just proximal to the tibiotarsal joint and weighed. The difference in weight between an individual animal's left and right paws were used as an indicator of tissue swelling.
As indicated above, test compounds are administered as a one hour pretreatment. In one series of experiments, 24 hour and 48 hour drug pretreatment periods were used. Test compounds were dosed intraperitoneally as a suspension in 1% carboxymethylcellulose.

corticosterone = assay: Serum/plasma corticosterone levels in mice; type: in vivo, mouse (Balb/C); conditions: FIG. 10 Panel A; 1 and 3 hr. following injection
From the text: Dopamine agonists are known to elevate circulating glucocorticoid levels, via activation of the hypothalamo-pituitary-adrenal axis. […] Since glucocorticoids are potential endogenous anti-inflammatory substances, this action is one potential mechanism for the anti-inflammatory effect of the ergolines. However, in subsequent inflammation studies, the anti-inflammatory effects of D-1-isopropyl-6-n-propyl-8β-methylthiomethyl ergoline were retained in mice lacking an adrenal gland and therefore devoid of the increase in circulating corticosterone. (FIG. 10B)
Both Balb/C mice (male, approximately 20 g, Charles Rivers) and Lewis rats (male, approximately 200 g, Charles River or Harlan Sprague Dawley) were used in neuroendocrine studies. Animals were maintained on a 12:12 hour light:dark cycle and were allowed ad lib access for food (Purina lab chow) and water. Experimental groups consisted of 6 to 8 animals.
After dosing with test compounds, animals were sacrificed by decapitation at 1, 3, 8 or 24 hour intervals. Trunk blood was collected, allowed to clot and serum obtained after centrifugation (3000 rpm for 15 min.). Serum was aliquoted and stored at -70° C. for subsequent radioimmunoassays. Serum prolactin was determined by radioimmunoassay. Serum corticosterone levels were determined with a kit designed for such determinations and obtained from ICN.

dopamine receptor = assay: Affinity at the dopamine receptor; type: binding
[5] = test system: dopamine receptor (DTH response); assay: Reversal of DTH inhibition by dopamine receptor antagonists; type: in vivo, mouse
Description: as §1, §2, §3

[6] = Table 2, single oral dose 0.1 mg/kg
[7] = Table 2, single oral dose 0.3 mg/kg
[8] = Table 2, single oral dose 1.0 mg/kg
[9] = Table 2, single oral dose 3.0 mg/kg
[10] = Table 1, single oral dose 0.3 mg/kg
[11] = Table 1, single oral dose 1.0 mg/kg
[12] = Table 1, single oral dose 3.0 mg/kg
[13] = Table 1, single oral dose 10.0 mg/kg
[14] = Table 2, single oral dose 0.01 mg/kg
[15] = Table 2, single oral dose 0.03 mg/kg
[16] = Table 1, single oral dose 30.0 mg/kg
[17] = Table 2, single oral dose 30.0 mg/kg

## CCCN1CCC[C@H]2Cc3nc(N)sc3C[C@@H]21 (racemic) [Compound 6, trans-(±)-2-amino-5-n-propyl-4,4a,5,6,7,8,8a,9-octahydrothiazolo [4,5-g] quinoline]
[1]; 10 mg/kg
  reduction of paw swelling (DTH): statistically significant

## CCCN1CCC[C@H]2Cc3nc(N)ncc3C[C@@H]21 (racemic) [Compound 8, trans-(±)-2-amino-6-n-propyl-5,5a,6,7,8,9,9a,10-octahydropyrimido[4,5-g] quinoline]
[1]; 1 mg/kg
  reduction of paw swelling (DTH): statistically significant decrease in inflammation
[1]
  inhibition of DTH response: lack of inhibition

## CCCN1CCC[C@H]2Cc3nc(N)ccc3C[C@@H]21 (relative stereo) [Compound 7, trans-(±)-2-amino-6-propyl-5,5a,6,7,8,9,9a,10-octahydropyrido [2-3 g] quinoline]
[1]; 10 mg/kg
  reduction of paw swelling (DTH): statistically significant

## CCCN1CC(CO)=C[C@H]2Cc3n[nH]cc3C[C@@H]21 (relative stereo) [Compound 9, 7-(5-n-propyl-trans-4,4a,5,6,8a,9-hexahydro-2H-pyrazolo[3,4-g)quinoline) methanol]
[1]; 3 mg/kg
  reduction of paw swelling (DTH): statistically significant
[1]; 10 mg/kg
  reduction of paw swelling (DTH): statistically significant
[1]
  inhibition of DTH response: inhibition

## CC(C)CC1C(=O)N2CCCC2C2(O)OC(NC(=O)C3C=C4c5cccc6[nH]c(Br)c(c56)CC4N(C)C3)(C(C)C)C(=O)N12 (stereo not drawn) [Bromocriptine, α-bromo-ergocryptine]
[2]; [6]
  % Inhibition: 0%
  Paw Weight Difference: 0.923 ± 0.039 g
[2]; [7]
  % Inhibition: 0%
  Paw Weight Difference: 0.937 ± 0.060 g
[2]; [8]
  % Inhibition: 0%
  Paw Weight Difference: 0.803 ± 0.046 g
[2]; [9]
  % Inhibition: 0%
  Paw Weight Difference: 0.931 ± 0.067 g
[2]; doses as high as 3 mg/kg, po
  activity in the acute inflammation model: no activity
α adrenergic receptors
  action at α adrenergic receptors: act at α adrenergic receptors
Inflammatory models
  basis of activity in inflammatory models of the literature: due to immunosuppressive activity
D-2 dopamine
  D-2 dopamine agonist activity: D-2 dopamine agonists

## CCCN1C[C@H](CSC)C[C@@H]2c3cccc4[nH]cc(c34)C[C@H]21 [Compound 2]
[2]; [10]
  % Inhibition: 60%
  Paw Weight Difference: 0.290 ± 0.028 g
[2]; [11]
  % Inhibition: 60%
  Paw Weight Difference: 0.295 ± 0.019 g
[2]; [12]
  % Inhibition: 60%
  Paw Weight Difference: 0.292 ± 0.017 g
[2]; [13]
  % Inhibition: 60%
  Paw Weight Difference: 0.293 ± 0.018 g
[2]; [14]
  % Inhibition: 1%
  Paw Weight Difference: 0.820 ± 0.033 g
[2]; [15]
  % Inhibition: 0%
  Paw Weight Difference: 1.009 ± 0.056 g
[2]; [6]
  % Inhibition: 11%
  Paw Weight Difference: 0.751 ± 0.045 g
[2]; [7]
  % Inhibition: 63%
  Paw Weight Difference: 0.313 ± 0.045 g
[2]; Tables 1 and 2
  anti-inflammatory properties: significant anti-inflammatory properties
α adrenergic receptors
  action at α adrenergic receptors: act at α adrenergic receptors
[1]; 1 mg/kg
  reduction of paw swelling (DTH): significantly reduced paw swelling
[1]; 3 mg/kg
  reduction of paw swelling (DTH): significantly reduced paw swelling
[1]; 10 mg/kg
  reduction of paw swelling (DTH): significantly reduced paw swelling
Parkinsonism
  effect on symptoms of Parkinsonism: effective in the treatment of some symptoms of Parkinsonism
D-2 dopamine
  D-2 dopamine agonist activity: D-2 dopamine agonists
[3]; read-out: dosage giving statistically significant decrease in paw volume, FIG. 1 Panel A
  minimal effective dose: ≥ 3 mg/kg
[3]; read-out: dosage giving statistically significant decrease in paw weight, FIG. 1 Panel B
  minimal effective dose: ≥ 3 mg/kg
[4]
  effect on 5-HT induced paw swelling: diminish 5-HT induced paw swelling

## CCCN1C[C@H](CSC)C[C@@H]2c3cccc4[nH]nc(c34)C[C@H]21 [Compound 4, D-2-aza-6-n-propyl-8β-methylthiomethyl ergoline]
[1]; 1 mg/kg
  reduction of paw swelling (DTH): reduced paw swelling
[1]; 3 mg/kg
  reduction of paw swelling (DTH): statistically significant
[1]; 10 mg/kg
  reduction of paw swelling (DTH): statistically significant

## CCCN1CC(CO)CC2Cc3n[nH]cc3CC21 (stereo not drawn) [Compound 10, 7-(5-n-propyl-trans-4,4a,5,6,7,8,8a, 9-Octahydro-2H-pyrazolo[3,4-g]quinoline) methanol]
corticosterone
  effect on plasma corticosterone: increase plasma cortiosterone
[1]; 3 mg/kg
  reduction of paw swelling (DTH): statistically significant
[1]; 10 mg/kg
  reduction of paw swelling (DTH): statistically significant

## CCCCCN1C[C@H](CSC)C[C@@H]2c3cccc4[nH]cc(c34)C[C@H]21 [D-6-n-pentyl-8β-methylthiomethyl ergoline]
[1]; FIGS. 7-9A studies
  anti-inflammatory activity: no anti-inflammatory activity
Dopamine receptor
  affinity at the dopamine receptor: minimal affinity

## O=c1[nH]c2ccccc2n1CCCN1CCC(n2c(=O)[nH]c3cc(Cl)ccc32)CC1 [Domperidone]
[5]; FIG. 9 Panel B
  effect on anti-inflammatory activity of D-1-isopropyl-6-n-propyl-8β-methylthiomethyl ergoline: reversed the anti-inflammatory activity

## CC(C(=O)O)c1cccc(Oc2ccccc2)c1 (stereo not drawn) [Fenoprofen]
[2]; 30 mg/kg
  effectiveness in suppressing inflammation compared with pergolide: not as effective as pergolide
[2]; [16]
  % Inhibition: 52%
  Paw Weight Difference: 0.353 ± 0.043 g
[2]; [17]
  % Inhibition: 55%
  Paw Weight Difference: 0.379 ± 0.028 g

## CCN1CCCC1CNC(=O)c1cc(S(N)(=O)=O)ccc1OC (stereo not drawn) [Sulpiride]
[5]; FIG. 9 Panel C, sulpiride 3, 10 and 30 mg/kg
  effect on inflammatory response in animals given 10 mg/kg of compound 10: partially restored the inflammatory response

Reference: US5416090A, “Method of treating inflammation” (priority 1992, dated 1995)
